Assay results: the NIST ThermoML archive (doi:10.1021/je049595u)

Test: molar heat capacity at saturation pressure

Cc1cccc2cccnc12 [8-methylquinoline]
molar heat capacity [J/K/mol], Vacuum adiabatic calorimetry
Details | Crystal | Liquid
83.66 K | 63.9 | –
86.44 K | 65.46 | –
90 K | 67.47 | –
91.89 K | 68.5 | –
94.09 K | 69.68 | –
100 K | 72.87 | –
100.75 K | 73.28 | –
103.06 K | 74.5 | –
112.71 K | 79.57 | –
120 K | 83.32 | –
123.65 K | 85.25 | –
135.63 K | 91.49 | –
140 K | 93.7 | –
147.53 K | 97.64 | –
160 K | 104.11 | –
160.44 K | 104.42 | –
170 K | – | 184.91
174.36 K | 111.83 | –
175.64 K | 112.44 | –
175.79 K | – | 185.73
180 K | 114.69 | 186.36
181.22 K | – | 186.55
186.72 K | – | 187.58
186.91 K | 118.52 | –
188.79 K | 119.55 | –
199.75 K | 125.65 | –
200 K | 125.52 | 190.48
203.2 K | 127.63 | –
212.46 K | 132.96 | –
215.19 K | 134.54 | –
220 K | 136.62 | 195.81
224.46 K | 140.5 | –
225.29 K | 140.97 | –
232.54 K | – | 199.61
235.37 K | 150.91 | –
238.7 K | – | 201.71
240 K | 147.98 | 202.12
245.88 K | – | 204
246.94 K | 151.99 | 204.38
253.58 K | – | 206.7
253.72 K | – | 206.81
254.07 K | – | 206.89
256.36 K | – | 207.75
257.67 K | – | 208.16
260 K | – | 208.99
265.24 K | – | 210.84
269.69 K | – | 212.52
280 K | – | 216.4
282.82 K | – | 217.48
296.93 K | – | 222.97
298.15 K | – | 223.45
300 K | – | 224.18
310.97 K | – | 228.56
312.23 K | – | 229.08
320 K | – | 232.22
326.77 K | – | 234.98
340 K | – | 240.4
341.89 K | – | 241.17
357.58 K | – | 247.68
360 K | – | 248.69
373.8 K | – | 254.38
380 K | – | 256.96
389.63 K | – | 260.93
400 K | – | 265.18
405.69 K | – | 267.5
420 K | – | 273.33
422.45 K | – | 274.32
437.11 K | – | 280.26
440 K | – | 281.4

Liquid
Details | molar heat capacity [J/K/mol]
460 K | 289.36
480 K | 297.35
500 K | 305.31
520 K | 313.17
540 K | 320.92
560 K | 328.51
580 K | 335.9
600 K | 343.02
620 K | 349.87
640 K | 356.47
660 K | 362.89
680 K | 369.38
700 K | 376.44
